IC50 data for 6 molecules are collected here from ChEMBL document CHEMBL5257145, “1,2,4-Triazine Derivatives as NLRP3 Inhibitors for Treating Diseases” (ACS Med Chem Lett, 2023).

What is called IC50 is the concentration needed to halve the response being measured.

SMILES strings stand for the structures.

The assay deals with NACHT, LRR and PYD domains-containing protein 3 (Homo sapiens, UniProt Q96P20). Description: Inhibition of NLRP3 inflammasome activation in PMA-differentiated human THP-1 cells assessed as reduction in IL-1beta secretion preincubated for 20 hrs followed by nigericin addition and measured after 3 hrs by HTRF assay. It counts as cell-based. On the technique in general: Time-resolved FRET reads energy transfer from a long-lived donor to a nearby acceptor.
NACHT, LRR and PYD domains-containing protein 3, sequence (Q96P20 whole entry, the tested form may be a part): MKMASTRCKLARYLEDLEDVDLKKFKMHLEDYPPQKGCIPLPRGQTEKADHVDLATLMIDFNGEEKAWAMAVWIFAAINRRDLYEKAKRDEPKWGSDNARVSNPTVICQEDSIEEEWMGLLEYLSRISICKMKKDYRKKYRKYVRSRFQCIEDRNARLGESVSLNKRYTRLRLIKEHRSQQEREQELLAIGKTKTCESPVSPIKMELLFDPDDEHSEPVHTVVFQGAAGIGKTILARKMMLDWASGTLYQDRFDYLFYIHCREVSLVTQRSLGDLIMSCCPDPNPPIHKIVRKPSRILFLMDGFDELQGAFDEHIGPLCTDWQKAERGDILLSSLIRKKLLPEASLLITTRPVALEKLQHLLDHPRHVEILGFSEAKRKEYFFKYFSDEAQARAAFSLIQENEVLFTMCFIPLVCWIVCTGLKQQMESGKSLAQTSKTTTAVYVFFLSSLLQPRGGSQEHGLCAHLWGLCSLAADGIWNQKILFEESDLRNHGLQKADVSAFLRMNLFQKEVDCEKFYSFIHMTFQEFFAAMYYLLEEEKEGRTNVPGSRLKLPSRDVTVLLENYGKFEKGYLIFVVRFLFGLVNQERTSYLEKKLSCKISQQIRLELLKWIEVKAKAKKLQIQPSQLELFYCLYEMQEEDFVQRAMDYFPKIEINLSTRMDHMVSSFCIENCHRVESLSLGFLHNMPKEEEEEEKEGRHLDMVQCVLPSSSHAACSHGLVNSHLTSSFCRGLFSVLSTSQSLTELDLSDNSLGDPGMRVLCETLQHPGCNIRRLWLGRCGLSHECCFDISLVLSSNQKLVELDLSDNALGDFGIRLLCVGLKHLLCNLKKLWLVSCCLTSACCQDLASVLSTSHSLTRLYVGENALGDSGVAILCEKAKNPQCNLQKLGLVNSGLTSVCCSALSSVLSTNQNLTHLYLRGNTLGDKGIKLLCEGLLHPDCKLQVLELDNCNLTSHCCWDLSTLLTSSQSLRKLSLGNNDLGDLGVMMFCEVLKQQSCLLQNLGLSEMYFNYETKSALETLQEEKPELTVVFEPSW
For the molecule `Cc1nc(N[C@@H]2CCCN(C)C2)nnc1-c1ccc(C(F)(F)F)cc1O`, the IC50 was below 1 nM. Then `Cc1nc(N[C@@H]2CCCN(C)C2)nnc1-c1ccc(C2CC2)cc1O`, with below 1 nM; and `Cc1nc(N[C@@H]2CCCN(C)C2)nnc1-c1ccc(Cl)cc1O`, with below 1 nM. In the case of `COc1cc(O)c(-c2nnc(N[C@@H]3CCCN(C)C3)nc2C)c(F)c1` it was below 1 nM; in that of `COc1ccc(-c2nnc(N[C@@H]3CCCN(C)C3)nc2C)c(O)c1`, below 1 nM. In the case of `Cc1cc(O)c(-c2nnc(N[C@@H]3CCCN(C)C3)nc2C)c(F)c1` it was below 1 nM.
